Experimental data taken from patent US6596878B2, “Methods and compositions for inhibiting cell proliferative disorders” (Yissum Research & Development Company of the Hebrew …, priority 1994, dated 2003).

Tested on: SKOV3 cells
Assay: SKOV3 soft agar colony growth assay
Type: cell-based
Settings: Homo sapiens, SK-OV-3, 336 h, Table V, colony growth 2 weeks, read-out: Estimated IC50 Growth Assays SKOV3 cells
From the text: This example illustrates the ability of the exemplary compounds to inhibit receptor tyrosine kinases, such as HER2 and/or EGFR. The following target cells were used for cellular kinaseassays: NIH3T3 clone C7 (Honegger et al., supra) engineered to over-express human EGF receptor; NIH3T3 cells engineered to over-express a chimeric receptor containing the EGFR extracellular domain and the HER2 intracellular kinase domain; the human mammary carcinoma line BT474 (ATCC HTB2) expressing HER2; and the human glioblastoma line U1242 that expresses PDGFR-β. Growth assays were carried out using human mammary epithelial SKBR3 (ATCC HTB30) cells, SKOV3 (ATCC HTB77) human ovarian cancer cell line, A431 cells, MCF7 human breast carcinoma cells, MCF7 cells overexpress the HER2 kinase (MCF7-HER2), NIH3T3 cells, and NIH3T3 cells overexpressing the HER2 kinase (3T3-HER2).
SKOV3 cells also over-express HER2. These cells were plated into soft agar with a test compound and colony growth was quantified 2 weeks. later using an Omnicon colony counter.
6. Soft Agar Assay Protocol
The soft agar assay is well known in the art as a method for measuring the effects of substances on cell growth. Unless otherwise stated the soft agar assays were carried out as follows:
(1) A Water bath set at 39° C. and another water bath at 37° C.
(2) 2×assay medium is comprised of 2×Dulbecco's Modified Eagle's Medium (DMEM) (Gibco Cat. #CA400-4ANO3) supplemented by the following:
20% Fetal Bovine Serum (FBS)
Non-essential Amino Acids (1:50 from 100×stock)
(3) 1×assay medium made of 1×DMEM supplemented with 10% FBS, 1 mM sodium pyruvate, 2 mM glutamine, 10 mM HEPES, non-essential amino acid (1:100 from 100×stock).
(4) 1.6% SeaPlaque Agarose in autoclave bottle
(5) Sterile 35 mm Corning plates (FMC Bioproducts Cat. #50102)
(6) Sterile 5 ml glass pipets (individually wrapped)
(7) Sterile 15 ml and 50 ml conical centrifuge tubes
(8) Pipets and sterile tips
(9) Sterile microcentrifuge tubes
(10) Cells in T75 flasks: SKOV-3 (ACTT HTB77).
(12) Procedure for making the base layer:
(a) Have all the media warmed up in the 37° C. water bath.
(b) To make 1×of assay medium+0.8% agar: make a 1:2 (vol:vol) dilution of melted agar (cooled to 39° C.), with 2×assay medium.
(c) Keep all media with agar warm in the 39° C. water bath when not in use.
(d) Dispense 1 ml of 1×assay medium+0.8% agar into dishes and gently swirl plate to form a uniform base layer. Bubbles should be avoided.
(e) Refrigerate base layers to solidify (about 20 minutes). Base layers can be stored overnight in the refrigerator.
(13) Procedure for collecting cells:
(a) Take out one flask per cell line from the incubator; aspirate off medium; wash once with PBS and aspirate off; add 3 ml of trypsin solution. […]
(d) Colonies that are 60 microns and larger are scored positive.

IC50 [µM] | Structure (SMILES)
0.5 | CC(C)(C)c1cc(/C=C(\C#N)C(N)=S)cc(C(C)(C)C)c1O [Compound M11]
20 | N#C/C(=C\c1ccc(O)c(O)c1)C(=S)NCc1ccccc1 [Compound M13]
17 | N#C/C(=C\c1ccc(O)c(O)c1)C(=O)Nc1cccc(C(F)(F)F)c1 [Compound M15]
4.5 | N#C/C(=C\c1cc(O)c(O)c(I)c1)C(=O)NCCCc1ccccc1 [Compound M16]
